{"source": "patent US20090082349A1", "about": "“THIAZOLONES FOR USE AS PI3 KINASE INHIBITORS” (priority 2006, published 2009)", "origin": "cited, not measured here", "key": {"CK2 protein kinase": {"target": "CK2 protein kinase (Homo sapiens, UniProt P68400)", "sequence (P68400 whole entry)": "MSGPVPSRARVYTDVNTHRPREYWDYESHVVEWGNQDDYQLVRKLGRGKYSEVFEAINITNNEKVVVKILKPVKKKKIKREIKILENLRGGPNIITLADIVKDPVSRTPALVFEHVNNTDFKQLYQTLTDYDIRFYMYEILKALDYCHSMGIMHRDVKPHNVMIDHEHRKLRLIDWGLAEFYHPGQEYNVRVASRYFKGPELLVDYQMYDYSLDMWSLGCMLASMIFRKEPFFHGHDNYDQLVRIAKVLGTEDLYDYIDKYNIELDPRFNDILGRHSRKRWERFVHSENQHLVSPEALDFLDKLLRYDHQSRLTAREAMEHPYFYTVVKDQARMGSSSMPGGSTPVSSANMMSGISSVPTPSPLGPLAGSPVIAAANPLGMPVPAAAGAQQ"}, "Class I PI3-kinases": {"test_system": "Class I PI3-kinases", "conditions": "each of the four Class I PI3-kinases"}}, "note": "Where two headings read alike, the source gives them in different places.", "data": [{"smiles": "O=c1cc(N2CCOCC2)oc2c(-c3ccccc3)cccc12", "note": "[LY294002]", "values": [{"measurement": "IC50", "setting": "CK2 protein kinase", "value": "5 to 10", "unit": "µM"}, {"measurement": "IC50", "setting": "Class I PI3-kinases; Fruman et al. 1998, read-out: IC50 against each of these PI3-kinases", "value": "15 to 20", "unit": "µM"}]}, {"smiles": "COC[C@H]1OC(=O)c2coc3c2[C@@]1(C)C1=C(C3=O)[C@@H]2CCC(=O)[C@@]2(C)C[C@H]1OC(C)=O", "note": "[wortmannin]", "values": [{"measurement": "IC50", "setting": "Class I PI3-kinases; read-out: IC50 against each of the various Class I PI3-kinases", "value": "0.001 to 0.01", "unit": "µM"}]}]}
